Tests used:
[1] = vaginal suppositories 600 mg/ovule, throughout the duration of the treatment; cited from earlier work
[2] = system: Candida albicans; conditions: cited from earlier work
[3] = system: Lactobacillus crispatus; conditions: L. crispatus single culture, 24 hours at 37° C., 5% CO2, 0.625% boric acid; MRS without boric acid 1.19 × 10^7
[4] = system: mixture of four lactobacilli; conditions: mix of four lactobacilli, 24 hours at 37° C., 5% CO2, 0.625% boric acid; MRS without boric acid 7.63 × 10^6
[5] = system: Candida albicans; conditions: summary statement of the description
[6] = system: Lactobacillus rhamnosus; conditions: L. rhamnosus single culture, 24 hours at 37° C., 5% CO2, 0.625% boric acid; MRS without boric acid 7.45 × 10^6
[7] = system: Gardnerella vaginalis; conditions: summary statement of the description
[8] = system: Lactobacillus gasseri; conditions: L. gasseri single culture, 24 hours at 37° C., 5% CO2, 0.625% boric acid; MRS without boric acid 7.28 × 10^6
[9] = system: lactobacilli tested, either alone or in combination; conditions: 0.625% boric acid
[10] = system: Lactobacillus jensenii; conditions: L. jensenii single culture, 24 hours at 37° C., 5% CO2, 0.625% boric acid; MRS without boric acid 7.63 × 10^6
[11] = low concentrations, non-therapeutic doses, first 24 hours

Which results are given for `OB(O)O` [boric acid]?
circulation levels of boric acid [1]: under 1 μg/ml; pH at which the substance completely inhibits the growth of Candida albicans ([2]; in vitro tests): 5-5.9; cellular ergosterol [2, 11]: decrease; inhibition of the micro-organisms growth, planktonic and biofilm form [2, 11]: moderate inhibition; lactobacilli culture count, MRS with boric acid [3]: 6.29 × 10^6; lactobacilli culture count, MRS with boric acid [4]: 7.40 × 10^6; activity against Candida albicans [5]: good activity; lactobacilli culture count, MRS with boric acid [6]: 3.17 × 10^6; activity against Gardnerella vaginalis [7]: poor activity; lactobacilli culture count, MRS with boric acid [8]: 2.37 × 10^6; inhibitory effect on the growth of the lactobacilli [9]: no inhibitory effect; lactobacilli culture count, MRS with boric acid [10]: 7.47 × 10^6
